Columns and labels:
[1] = system: genetischen Hochdruckratte; settings: genetische Hochdruckratte; 30 mg/kg p.o.
[2] = system: durch Bradykinin erzeugte Blutdrucksenkung; settings: Ratten; 3,0 µ g/kg Bradykinin i.v.; test substance 1,38juMol/kg i.v.

In the case of `C[C@H](CSC(C[N+](=O)[O-])c1ccccc1)C(=O)N1CCC[C@H]1C(=O)O` (stereo partly drawn) [Beispiel 1, 1-[3-(1-Phenyl-2-nitro-äthylthio)-2-D-methylpropanoyl]-L-prolin], the Blutdrucksenkung [1] is reported as 19% and the “durch Bradykinin verursachte Blutdrucksenkung verstärkt um” value [2] is reported as 142%.
